Test results taken from patent publication US10214512B2, “Factor XIA inhibitors” (MERCK SHARP & DOHME CORP., priority 2015, dated 2019).

What was measured:
[1] = molecular target: purified Human plasma Kallikrein (Homo sapiens (Human), UniProt P03952); assay: Kallikrein Assay; format: biochemical; conditions: purified Human plasma Kallikrein 0.5 nM; substrate Acetyl-K-P-R-AFC; 50 mM HEPES pH 7.4; Ki from IC50 by Cheng Prusoff
Procedure, shortened: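 Purified human plasma kallikrein (0.5 nM) with fluorogenic Ac-K-P-R-AFC ([…]) in 50 mM HEPES pH 7.4, 150 mM NaCl, 5 mM CaCl2, 0.1% PEG 8000, at rt or 37 °C. Substrate hydrolysis rate read with and without inhibitor; IC50 from four-parameter logistic fit, converted to Ki by Cheng–Prusoff.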

[2] = molecular target: purified human Factor XIa (Homo sapiens (Human), UniProt P03951); assay: Factor XIa Assay; format: biochemical; conditions: purified human Factor XIa 40 pM; substrate Z-Gly-Pro-Arg-AFC 100 μM; 50 mM HEPES pH 7.4; read-out: Human FXIa Ki
Procedure, shortened: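 Purified human FXIa at 40 pM final with fluorogenic Z-Gly-Pro-Arg-AFC at 100 μM, in 50 mM HEPES pH 7.4, 150 mM NaCl, 5 mM CaCl2, 0.1% PEG 8000, at rt or 37° C. Initial velocities measured after enzyme–inhibitor equilibration; Ki derived from Vo/Vi versus [I] assuming competitive inhibition.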

Chain of purified human Factor XIa (P03951 388-625): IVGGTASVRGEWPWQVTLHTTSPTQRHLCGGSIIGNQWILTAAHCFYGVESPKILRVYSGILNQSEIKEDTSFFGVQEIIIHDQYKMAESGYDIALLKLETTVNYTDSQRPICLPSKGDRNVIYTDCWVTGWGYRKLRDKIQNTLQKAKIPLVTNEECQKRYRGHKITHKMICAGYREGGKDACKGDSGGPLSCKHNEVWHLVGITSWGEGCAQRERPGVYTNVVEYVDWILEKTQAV
Chain of purified human Factor XIa (P03951 19-387 partner): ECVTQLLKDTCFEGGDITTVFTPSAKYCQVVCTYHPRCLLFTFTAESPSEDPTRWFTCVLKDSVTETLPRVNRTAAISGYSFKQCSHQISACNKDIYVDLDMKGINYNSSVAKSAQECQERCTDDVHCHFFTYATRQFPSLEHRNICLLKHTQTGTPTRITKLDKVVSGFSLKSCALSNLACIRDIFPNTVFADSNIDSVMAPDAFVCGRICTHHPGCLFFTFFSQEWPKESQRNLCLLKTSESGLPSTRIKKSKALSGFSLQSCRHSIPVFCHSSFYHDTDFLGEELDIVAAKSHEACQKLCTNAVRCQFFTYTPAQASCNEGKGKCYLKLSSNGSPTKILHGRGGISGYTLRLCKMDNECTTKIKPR
Chain of purified Human plasma Kallikrein (P03952 391-638): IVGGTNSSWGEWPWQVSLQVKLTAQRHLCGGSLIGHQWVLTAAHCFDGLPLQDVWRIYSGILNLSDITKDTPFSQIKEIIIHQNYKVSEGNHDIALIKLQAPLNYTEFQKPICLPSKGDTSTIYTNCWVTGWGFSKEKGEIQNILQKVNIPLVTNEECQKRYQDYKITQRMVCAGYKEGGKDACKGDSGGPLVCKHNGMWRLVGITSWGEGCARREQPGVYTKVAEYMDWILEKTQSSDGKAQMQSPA
Chain of purified Human plasma Kallikrein (P03952 20-390 partner): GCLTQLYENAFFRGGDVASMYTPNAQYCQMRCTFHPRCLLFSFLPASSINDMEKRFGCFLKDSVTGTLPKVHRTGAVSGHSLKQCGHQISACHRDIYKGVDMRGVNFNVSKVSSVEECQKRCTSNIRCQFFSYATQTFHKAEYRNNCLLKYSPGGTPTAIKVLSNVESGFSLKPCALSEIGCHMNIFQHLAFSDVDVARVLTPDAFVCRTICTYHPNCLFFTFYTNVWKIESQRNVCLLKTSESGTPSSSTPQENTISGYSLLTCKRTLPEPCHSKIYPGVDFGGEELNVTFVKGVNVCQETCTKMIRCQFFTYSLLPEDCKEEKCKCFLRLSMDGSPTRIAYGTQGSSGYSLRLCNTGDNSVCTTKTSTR

| Structure (SMILES) | Ki [1] [nM] | Ki [2] [nM] |
| --- | --- | --- |
| COC(=O)Nc1ccc2c(c1)NC(=O)CCCCC(c1ccc(-c3c(F)ccc(Cl)c3F)c[n+]1[O-])c1cc-2cc[n+]1[O-] (centres unmarked) [Example 83, 9-(5-(3-chloro-2,6-difluorophenyl)-1-oxidopyridin-2-yl)-2^4-((methoxycarbonyl)amino)-4-oxo-3-aza-1(4,2)-pyridin-1-iuma-2(1,2)-benzenacyclononaphane 1^1-oxide] | 5.47 | 2.2 |
| COC(=O)Nc1ccc2c(c1)NC(=O)CCCC[C@H](c1ccc(-c3c(F)ccc(Cl)c3F)c[n+]1[O-])c1cc-2ncc1F (single isomer, unassigned) [Example 72] | 2.96 | 0.5 |
| O=C1CCCCC(c2ccc(-c3cc(Cl)ccc3-n3cc(C(F)(F)F)nn3)c[n+]2[O-])c2cccc(c2)-c2c(cnn2C(F)F)N1 (centres unmarked) [Example 165, 5-(5-chloro-2-(4-(trifluoromethyl)-1H-1,2,3-triazol-1-yl)phenyl)-2-(1^1-(difluoromethyl)-8-oxo-1^1H-9-aza-1(5,4)-pyrazola-2(1,3) -benzenacyclononaphane-3-Yl)pyridine 1-oxide] | 5.76 | 0.21 |
| COC(=O)Nc1ccc2c(c1)NC(=O)CCCCC(c1ccc(-c3cc(Cl)ccc3-n3cnnn3)cn1)c1cc-2c(F)cn1 (centres unmarked) [Example 61, methyl (9-(5-(5-chloro-2-(1h-tetrazol-1-yl)phenyl)pyridin-2-yl)-1^5-fluoro-4-oxo-3-aza-1(4,2)-pyridina-2(1,2)-benzenacyclononaphane-2^4-yl)carbamate] | 26 | 1.4 |
| COC(=O)Nc1ccc2c(c1)NC(=O)CC1CC1CC(c1ccc(-c3c(OC(F)F)ccc(Cl)c3F)c[n+]1[O-])c1nc-2c(C)[nH]1 (racemic) [Example 159] | 3.5 | 0.66 |
| COC(=O)Nc1ccc2c(c1)NC(=O)CCCCC(c1ccc(-c3cc(Cl)ccc3-n3cnnn3)cn1)c1cc-2ncc1F (centres unmarked) [Example 57, methyl (9-(5-(5-chloro-2-(1h-tetrazol-1-yl)phenyl)pyridin-2-yl)-1^5-fluoro-4-oxo-3-aza-1(2,4)-pyridina-2(1,2)-benzenacyclononaphane-2^4-yl)carbamate] | 12.1 | 0.52 |
| CCc1[nH]c2nc1-c1ccc(NC(=O)OC)cc1NC(=O)C(C)CCC[C@@H]2c1ccc(-c2c(F)cccc2F)c[n+]1[O-] (single isomer, unassigned) [Example 144] | 1.35 | 0.46 |
| C[C@H]1CCC[C@@H](c2ccc(-c3cc(Cl)ccc3-n3cnnn3)c[n+]2[O-])c2cccc(c2)-c2cc(F)ccc2NC1=O [Example 3-c, 5-(5-Chloro-2-(1H-tetrazol-1-yl)phenyl)-2-((5S,9R)-2^5-fluoro-5-methyl-4-oxo-3-aza-1(1,3),2(1,2)-dibenzenacyclononaphane-9-yl)pyridine 1-oxide] | 660 | 26.3 |
| COC(=O)Nc1ccc2c(c1)NC(=O)CCCC[C@H](c1ccc(-c3cc(Cl)ccc3-n3cc(C)cn3)c[n+]1[O-])c1nc-2c(C)[nH]1 (single isomer, unassigned) [Example 141] | 82.8 | 0.49 |
| CC(C)(C)OCCOC(=O)Nc1ccc2c(c1)NC(=O)CCCC[C@H](c1ccc(-c3c(F)ccc(Cl)c3F)c[n+]1[O-])c1cccc-2c1 [Example 45, (S)-2-(2^4-(((2-(tert-butoxy)ethoxy)carbonyl)amino)-4-oxo-3-aza-1(1,3),2(1,2)-dinenzenacyclononaphane-9-yl)-5-(3-chloro-2,6-difluorophenyl)pyridine 1-oxide] | 0.44 | 0.24 |
| COC(=O)Nc1ccc2c(c1)NC(=O)CCCCC(c1ccc(-c3c(F)ccc(Cl)c3F)c[n+]1[O-])c1nc-2c(C)[nH]1 (single isomer, unassigned) [Example 111-a, (Z)-5-(3-chloro-2,6-difluorophenyl)-2-(2^4-((methoxycarbonyl)amino)-1^5-methyl-4-oxo-1^1H-3-aza-1(4,2)-imidazola-2(1,2) -benzenacyclononaphane-9-yl)pyridine 1-oxide] | 0.34 | 0.19 |
| COC(=O)Nc1ccc2c(c1)NC(=O)C[C@H]1C[C@@H]1C[C@H](c1ccc(-c3c(F)ccc(Cl)c3F)c[n+]1[O-])c1cccc-2c1 (single isomer, unassigned) [Example 66] | 10.2 | 2.1 |
| COC(=O)Nc1ccc2c(c1)NC(=O)CC1CC1CC(c1ccc(-c3c(C(F)F)ccc(C)c3F)c[n+]1[O-])c1nc-2c(C)[nH]1 (racemic) [Example 158] | 4.92 | 1.07 |
| COC(=O)Nc1ccc2c(c1)NC(=O)CCCCC(c1ccc(-c3cc(Cl)ccc3-n3cnnn3)c[n+]1[O-])c1cc(F)cc-2c1 (centres unmarked) [Example 52, 5-(5-chloro-2-(1h-tetrazol-1-yl)phenyl)-2-(1^5-fluoro-2^4-((methoxycarbonyl)amino)-4-oxo-3-aza-1(1,3),2(1,2) -dinenzenacyclononaphane-9-yl)pyridine 1-oxide] | 1.43 | 0.32 |

Further molecules by falling Ki [1], results first:

| Ki [1] [nM] | Ki [2] [nM] | Structure (SMILES) |
| --- | --- | --- |
| 46.6 | 2.76 | COC(=O)Nc1ccc2c(c1)NC(=O)CCCCC(c1ccc(-c3cc(Cl)ccc3-n3cnnn3)cn1)c1cc(F)cc-2c1 (centres unmarked) [Example 51, Methyl (9-(5-(5-chloro-2-(1H-tetrazol-1-yl)phenyl)pyridin-2-yl)-1^5-fluoro-4-oxo-3-aza-1(1,3),2(1,2)-dinenzenacyclononaphane-2^4-yl)carbamate] |
| 12.7 | 4.1 | COC(=O)Nc1ccc2c(c1)NC(=O)CCCCC(c1cc(OC)c(-c3c(F)ccc(Cl)c3F)c[n+]1[O-])c1cccc-2c1 (single isomer, unassigned) [Example 87-a, 5-(3-Chloro-2,6-difluorophenyl)-4-methoxy-2-(2^4-((methoxycarbonyl)amino)-4-oxo-3-aza-1(1,3),2(1,2) -dibenzenacyclononaphane-9-yl)pyridine 1-oxide] |
| 6.77 | 0.38 | COC(=O)Nc1ccc2c(c1)NC(=O)CCCC[C@H](c1ccc(-c3cc(Cl)ccc3OC(F)(F)F)c[n+]1[O-])c1cccc-2c1 (single isomer, unassigned) [Example 30] |
| 4 | 0.47 | O=C1CCCCC(c2ccc(-c3cc(Cl)ccc3-n3cnnn3)c[n+]2[O-])c2c[nH]c(n2)-c2cc(F)ccc2N1 (racemic) [Example 160, (Z)-5-(5-chloro-2-(1H-tetrazol-1-yl)phenyl)-2-(2^5-fluoro-4-oxo-1^1H-3-aza-1(2,4)-imidazola-2(1,2)-benzenacyclononaphane-9-yl)pyridine 1-oxide] |
| 1.85 | 0.38 | CC1CCCC(c2ccc(-c3cc(Cl)ccc3-n3cnnn3)c[n+]2[O-])c2cccc(c2)-c2ccc(C#N)cc2NC1=O (centres unmarked) [Example 84, 5-(5-chloro-2-(1H-tetrazol-1-yl)phenyl)-2-(2^4-cyano-5-Methyl-4-OXO-3-aza-1(1,3), 2(1,2)-dinenzenacyclononaphane-9-yl)pyridine 1-oxide] |
| 1.41 | 0.42 | COC(=O)Nc1ccc2c(c1)NC(=O)CCCC[C@H](c1ccc(-c3c(C(F)(F)F)ccc(Cl)c3F)c[n+]1[O-])c1nc-2c(C)[nH]1 (single isomer, unassigned) [Example 123] |
| 1.35 | 0.55 | O=C1CCCCC(c2ccc(-c3c(-n4cnnn4)ccc(Cl)c3F)c[n+]2[O-])c2c[nH]c(n2)-c2cc(F)ccc2N1 (racemic) [Example 161, (Z)-5-(3-chloro-2-fluoro-6-(1H-tetrazol-1-yl)phenyl)-2-(2^5-fluoro-4-oxo-1^1H-3-aza-1(2,4)-imidazola-2(1,2)-benzenacyclononaphane-9-yl)pyridine 1-oxide] |
| 0.4 | 0.1 | COC(=O)Nc1ccc2c(c1)NC(=O)[C@H](C)CCC[C@H](c1ccc(-c3c(F)cccc3F)c[n+]1[O-])c1nc-2c(C)[nH]1 (single isomer, unassigned) [Example 143-b] |
